Data from patent US20180187263A1, “KITS FOR DIAGNOSTIC DETECTION AND PREVENTION OF FEEDLOT BOVINE RESPIRATORY DISEASE” (Iowa State University Research Foundation, Inc., priority 2017, published 2018).

Experiments:
BRD in feedlot calves = assay: BRD prevention at the feedlot, drug in the feed (Examples 5-7); assay type: in vivo
Description: An initial study was performed to confirm BRD prevention at the feedlot using an anti-inflammatory composition comprising rupatadine, the oral inhibitor of PAFR. A total of 18 calves were evaluated with the treatment arm receiving a dosage rate of 0.3 mg/kg. Calves were provided the drug in the feed during the first three weeks after entering the feedlot which is within the high risk 6-week period following transfer of the animal. Calves were purchased from a location in Joplin, Mo. having an overall incidence of BRD at >40% which is higher than the standard incidence of about 10% in cattle.
A further study was performed to confirm BRD prevention at the feedlot using the anti-inflammatory composition comprising rupatadine. The same methodology of Example 5 was employed with the modification of the number of calves and the dosage rate. The dosage rate was increased to 0.6 mg/kg. The number of calves were increased to 24 in total. The results are consistent to the first trial, including: 41.7% of treated calves (n=5 of 12) developed BRD whereas 100% of untreated calves (n=12 of 12) developed BRD.
A further study was performed to confirm BRD prevention at the feedlot using the anti-inflammatory composition comprising rupatadine as outlined in Example 5 with the modification of the number of calves (20 total) and the dosage rate. The dosage rate increased to 1.2 mg/kg.

PAFR [1] = assay: weekly blood PAFR level by qRT-PCR (Example 14); assay type: in vivo, calves
Description: Blood was extracted from all 25 calves was extracted weekly and the level of PAFR was assayed using qRT-PCR and the theoretical copies of transcript/200 ng of total RNA. […] However, it dropped the most in the weekly depot injection calves during the last three weeks of observations.

PAFR [2] = molecular target: T1, PAFR (Bos taurus, UniProt Q9TTY5); assay: stress hormone- and commensal oral bacteria-mediated second messenger accumulation in calf blood cells; assay type: cell-based, cattle; settings: 500 nM inhibitor; cortisol 5 ng/mL, norepinephrine 100 pg/mL, 10^6 CFUs/mL commensal oral bacteria; six hours at 37° C.
T1 construct: second messenger accumulation in calf blood cells that have an increase in expression of PAFR; endogenous in cells; host or cells: bovine whole blood cells (ex vivo)
From the text: A PAFR inhibitor blocks the stress hormone- and commensal oral bacteria-mediated second messenger accumulation in calf blood cells that have an increase in expression of PAFR. Studies presented in Example 1 and FIG. 1 were repeated with the inclusion of the compositions comprising the anti-inflammatory drug rupatadine according to the invention. Blood was drawn from 10 animals that have an increase in PAFR expression (those in which an RT-PCR amplicon was visible after 10-15 cycles) and 10 animals with “normal” or no PAFR expression (those in which an RT-PCR amplicon was visible after 30-45 cycles).
Approximately 5 mL of whole blood was collected from the jugular or caudal vein of non-transported juvenile and adult cattle. Blood was placed in EDTA tubes, aliquoted, and cortisol (5 ng/mL) and norepinephrine (100 pg/mL) were added to some of the blood. The next day, blood samples were incubated with 0 or 10^6 CFUs/mL of commensal oral bacteria, 0 or 500 nM of the inhibitor, and a second messenger reagent for six hours at 37° C. with gentle rolling. After the six-hour incubation period, blood samples were analyzed for the production of second messengers. Data was standardized based on second messenger production in the presence of vehicle. […] Fifty ng of total RNA was then subjected to semi-quantitative RT-PCR to confirm the PAFR expression status of each animal.

lung pathology = assay: lung necropsy after five weeks of treatment (Example 13); assay type: in vivo; settings: after five weeks of weekly 7 mg/kg subcutaneous injections; BRD(+) calves usually >25%
From the text: After the five weeks, the rupatadine treated animals were euthanized and the lungs removed and necropsied. Three veterinarians then assessed the lungs for signs of disease, such as abscessation or consolidation. […] Lung pathology in BRD(+) calves is usually >25%, and of the rupatadine treated animals, there was only about 5-10% disease identified by the veterinarians.

[3] = pharmacotherapeutic study, blood levels after oral administration; assay type: in vivo; settings: daily oral doses of 30 mg/animal for 5 days; six calves; FIG. 9
Description: A pharmacotherapeutic study was completed to confirm the PAFRi survives the rumen and reaches therapeutic blood and lung concentrations following oral administration to feedlot calves. Six calves were purchased and given daily oral doses of 30 mg/animal of the drug rupatadine for 5 days. Blood was drawn five times on day one and twice per day thereafter to measure the blood levels of rupatadine.
In addition to the blood levels of the drug, the amount of the drug in the muscle tissue is also analyzed. Six recently weaned feedlot calves were orally dosed with […] of rupatadine once a day for five days, a dose that was determined based on allometric scaling from human data. Blood samples were taken at 0, 2, 4, 8, 12, 24, 48, 72, 96, and 120 hours after the first dose. Calves were euthanized at the 120-hour time point at which lungs samples were removed. Samples were submitted to the PhAST laboratory at Iowa State University, for LCMS-based quantitation of the drug and its primary metabolite that is pharmacologically active.

BRD in high-risk calves [4] = assay: BRD prevention in high-risk calves, weekly injections (Example 13); assay type: in vivo; settings: weekly injections over five weeks; rupatadine 7 mg/kg subcutaneous, tripelennamine 1 mg/kg, WEB2086 10 mg/kg; five calves per group
Description: Twenty-five high-risk BRD calves were transported to a new barn and five each were assigned to different treatment groups: no treatment, weekly subcutaneous injections of 7 mg/kg of rupatadine, weekly injections of 1 mg/kg tripelennamine, weekly injections of 10 mg/kg WEB2086, and weekly injections of 1 mg/kg tripelennamine and 10 mg/kg WEB2086. The animals were observed over the next five weeks twice daily for BRD. Any animal who required antibiotics for treating the clinical signs of BRD was classified as having BRD. […] Four of the five (80%, n=4 of 5) animals receiving tripelennamine only developed BRD.

[5] = molecular target: T2, Bovine H1 histamine receptor (Bos taurus, UniProt P30546); assay: histamine-mediated intracellular calcium accumulation in BHK cells transiently expressing bovine H1 histamine receptor; assay type: cell-based; settings: 10 nM histamine
T2 construct: expressed in transfected cells; host or cells: BHK cells, transient, lipofectamine, pcDNA3.3
Description: Bovine H1 histamine receptor was cloned into pcDNA3.3 expression vector and transiently expressed in BHK tissue culture cells using lipofectamine as per Carlson et al. Ten nM histamine was then added to the cells in the presence of various concentrations of rupatadine, tripelennamine, lexipafant, or WEB2086. Intracellular calcium accumulation was monitored in the transfected cells using a commercially available kit (Abcam, Cambridge, Mass.). IC50 values were then determined by identifying the concentration of the antagonist that reduced the maximal PAF-mediated intracellular calcium accumulation by 50%. […] Therefore, as showing in Examples 11 and 12, rupatadine is the only antihistamine that can also block the function of PAFR.

BRD in high-risk calves [6] = assay: BRD prevention in high-risk calves, comparison of rupatadine treatment methods (Example 14); assay type: in vivo; settings: for calves that developed BRD: five-week observation, n=6
Description: In order to test various treatment methods of rupatadine, 25 high-risk calves were transported to a new farm. Seven calves were used as controls, six were given rupatadine as a single oral dose of 1 mg/kg, six were given rupatadine as a single subcutaneous injection of 7 mg/kg, six calves were given weekly subcutaneous injections of 7 mg/kg rupatadine. The animals were observed over the next five weeks twice daily for BRD. Any animal who required antibiotics for treating the clinical signs of BRD was classified as having BRD.

Bovine PAFR = molecular target: T3, Bovine PAFR (Bos taurus, UniProt Q9TTY5); assay: PAF-mediated intracellular calcium accumulation in BHK cells transiently expressing bovine PAFR; assay type: cell-based; settings: 10 nM PAF; for block of bovine PAFR (PAF-mediated intracellular calcium accumulation), FIG. 11: antagonist 1-100 nM, PAFR antagonists panel; for block of bovine PAFR (PAF-mediated intracellular calcium accumulation), FIG. 12: antihistamines 1-100 nM
T3 construct: expressed in transfected cells; host or cells: BHK cells, transient, lipofectamine, pcDNA3.3
T3 sequence (Q9TTY5 whole entry): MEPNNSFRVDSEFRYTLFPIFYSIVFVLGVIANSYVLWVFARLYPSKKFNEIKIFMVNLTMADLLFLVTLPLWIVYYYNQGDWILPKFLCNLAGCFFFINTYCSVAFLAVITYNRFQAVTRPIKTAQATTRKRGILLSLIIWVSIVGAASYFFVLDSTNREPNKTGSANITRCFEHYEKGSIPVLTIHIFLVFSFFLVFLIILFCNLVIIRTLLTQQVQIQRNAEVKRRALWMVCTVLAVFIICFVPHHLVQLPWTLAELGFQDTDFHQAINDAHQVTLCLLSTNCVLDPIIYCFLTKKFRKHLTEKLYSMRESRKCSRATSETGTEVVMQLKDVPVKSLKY
Description: Bovine PAFR was cloned into pcDNA3.3 expression vector and transiently expressed in BHK tissue culture cells using lipofectamine as per Carlson et al., J Biol Chem, 271:23146053 (1996), herein incorporated by reference in its entirety. Ten nM PAF was then added to the cells in the presence of various concentrations of various antagonists: rupatadine, lexipafant (as in Kingsnorth, et al., BJS, 82:1414-20 (1995), herein incorporated in its entirety), and WEB2086 a PAF antagonist which has not been commercialized and/or used in humans to date (as in Casals-Stenzel et al., J of Pharmacolo Experimental Therapeutics, 241:974-81 (1987), herein incorporated in its entirety), as well as tripelennamine, a bovine-approved antihistamine at concentrations ranging between 1-100 nM. Intracellular calcium accumulation was monitored in the transfected cells using a commercially available kit (Abcam, Cambridge). IC50 values were then determined by identifying the concentration of the antagonist that reduced the maximal PAF-mediated intracellular calcium accumulation by 50%.
Various antihistamines were also tested. […] Intracellular calcium accumulation was monitored in the transfected cells using a commercially available kit (Abcam, Cambridge). IC50 values were then determined by identifying the concentration of the antagonist that reduced the maximal PAF-mediated intracellular calcium accumulation by 50%.

T2 sequence (P30546 whole entry): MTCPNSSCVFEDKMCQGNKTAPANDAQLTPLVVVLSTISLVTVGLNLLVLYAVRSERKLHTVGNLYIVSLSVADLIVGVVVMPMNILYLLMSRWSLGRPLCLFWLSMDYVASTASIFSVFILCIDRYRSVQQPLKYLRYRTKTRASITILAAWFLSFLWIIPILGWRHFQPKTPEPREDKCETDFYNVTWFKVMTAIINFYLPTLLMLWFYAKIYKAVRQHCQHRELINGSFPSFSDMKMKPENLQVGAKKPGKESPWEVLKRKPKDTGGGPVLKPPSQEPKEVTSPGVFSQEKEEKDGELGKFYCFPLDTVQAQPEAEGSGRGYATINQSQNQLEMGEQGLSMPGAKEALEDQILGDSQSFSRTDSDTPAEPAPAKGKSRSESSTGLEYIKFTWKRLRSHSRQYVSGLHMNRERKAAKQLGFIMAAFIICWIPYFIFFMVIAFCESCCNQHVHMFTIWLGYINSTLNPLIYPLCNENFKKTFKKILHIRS
T1 sequence (Q9TTY5 whole entry): as the sequence (Q9TTY5 whole entry) above

Row | Structure (SMILES) | animals that developed BRD (BRD in high-risk calves [4]) [%] | block of H1 histamine receptor function, FIG. 13 [5] | block of bovine PAFR (PAF-mediated intracellular calcium accumulation), FIG. 11 (Bovine PAFR) | block of bovine PAFR (PAF-mediated intracellular calcium accumulation), FIG. 12 (Bovine PAFR) | further results
1 | Cc1cncc(CN2CCC(=C3c4ccc(Cl)cc4CCc4cccnc43)CC2)c1 [rupatadine, 8-chloro-11-[1-[(5-methyl-3-pyridyl)methyl]-4-piperidyliden]-6,11-dihydro-5H-benzo[5,6]cyclohepta[1,2-b]pyridine] | 0 | block | blocked | blocks | treated calves that developed BRD (BRD in feedlot calves; 0.3 mg/kg in the feed during first three weeks after entering feedlot, 8 treated calves, within 5 weeks): 50%; reduction in BRD (BRD in feedlot calves; 0.3 mg/kg in the feed, versus calves that received no drug): 50%; decrease in PAFR expression over five weeks (PAFR [1]; weekly depot injection 7 mg/kg versus control and other rupatadine treatments, FIG. 21): greatest decrease; PAFR expression at 35 days (PAFR [1]; weekly injections 7 mg/kg, 35 days): below ‘normal’ expression; second messenger accumulation in samples with increased PAFR expression (PAFR [2]): indistinct from normal or non-expressing samples; lung disease identified by the veterinarians (lung pathology): 5-10%; blood levels: time to reach therapeutic concentrations [3]: reaches therapeutic concentrations more rapidly than in humans; calves that developed BRD (BRD in high-risk calves [6]; single oral dose of 1 mg/kg): 100%; calves that developed BRD (BRD in high-risk calves [6]; single subcutaneous long-acting injection of 7 mg/kg): 83.3%; calves that developed BRD (BRD in high-risk calves [6]; weekly subcutaneous injections of 7 mg/kg): 16.7%; day on which BRD developed (BRD in high-risk calves [6]; weekly subcutaneous injections of 7 mg/kg, the one calf that developed BRD): 31 days
2 | CN(C)CCOC(c1ccccc1)c1ccccc1 [diphenhydramine] | – | – | – | do not block | –
3 | COc1ccc(CN(CCN(C)C)c2ccccn2)cc1 [pyrilamine] | – | – | – | do not block | –
4 | CN(C)CCN(Cc1ccccc1)c1ccccn1 [tripelennamine] | 80 | block | not blocked | do not block | –
5 | OCCOCCN1CCN(C(c2ccccc2)c2ccc(Cl)cc2)CC1 (stereo not shown) [hydroxyazine, hydroxyzine] | – | – | – | do not block | –
6 | Cc1nnc2n1-c1sc(CCC(=O)N3CCOCC3)cc1C(c1ccccc1Cl)=NC2 [WEB2086] | 100 | fail to black | blocked | – | –
7 | CC(CN1c2ccccc2Sc2ccccc21)N(C)C (stereo not shown) [promethazine] | – | – | – | do not block | –
8 | CCOC(=O)[C@H](CC(C)C)N(C)S(=O)(=O)c1ccc(Cn2c(C)nc3cnccc32)cc1 [lexipafant] | – | fail to black | blocked | – | –
